Measurements from patent US8598157B2, “5-alkynyl-pyridines” (Boehringer Ingelheim International GmbH, priority 2011, dated 2013).

Experiments:
MCF7 cells = test: alamarBlue MCF7 cell assay (antiproliferative/cytotoxicity); assay type: cell-based; conditions: MCF7 human breast cancer cell line
Summary of the method: (§1)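 Growth inhibition is assessed over 5-6 days of compound exposure (10 μM top, threefold dilutions) using alamarBlue fluorescence; EC50 values are fitted after subtracting medium blank.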

BT474 cells = test: alamarBlue BT474 cell assay (antiproliferative/cytotoxicity); assay type: cell-based; conditions: BT-474 human breast cancer cell line
Summary of the method: as §1

MB453 cells = test: alamarBlue MB453 cell assay (antiproliferative/cytotoxicity); assay type: cell-based; conditions: Homo sapiens; MDA MB 453 breast cancer cell line
Summary of the method: as §1

PI3Kalpha = PI3Kalpha (Homo sapiens (Human), UniProt P42336); test: Inhibition of PI3Kalpha-induced PIP-2 phosphorylation (filter-binding assay); assay type: biochemical; conditions: 33P-ATP, p85alpha/His-p110alpha, read-out: IC50 PI3Kα
Chain of PI3Kalpha (P42336 whole entry): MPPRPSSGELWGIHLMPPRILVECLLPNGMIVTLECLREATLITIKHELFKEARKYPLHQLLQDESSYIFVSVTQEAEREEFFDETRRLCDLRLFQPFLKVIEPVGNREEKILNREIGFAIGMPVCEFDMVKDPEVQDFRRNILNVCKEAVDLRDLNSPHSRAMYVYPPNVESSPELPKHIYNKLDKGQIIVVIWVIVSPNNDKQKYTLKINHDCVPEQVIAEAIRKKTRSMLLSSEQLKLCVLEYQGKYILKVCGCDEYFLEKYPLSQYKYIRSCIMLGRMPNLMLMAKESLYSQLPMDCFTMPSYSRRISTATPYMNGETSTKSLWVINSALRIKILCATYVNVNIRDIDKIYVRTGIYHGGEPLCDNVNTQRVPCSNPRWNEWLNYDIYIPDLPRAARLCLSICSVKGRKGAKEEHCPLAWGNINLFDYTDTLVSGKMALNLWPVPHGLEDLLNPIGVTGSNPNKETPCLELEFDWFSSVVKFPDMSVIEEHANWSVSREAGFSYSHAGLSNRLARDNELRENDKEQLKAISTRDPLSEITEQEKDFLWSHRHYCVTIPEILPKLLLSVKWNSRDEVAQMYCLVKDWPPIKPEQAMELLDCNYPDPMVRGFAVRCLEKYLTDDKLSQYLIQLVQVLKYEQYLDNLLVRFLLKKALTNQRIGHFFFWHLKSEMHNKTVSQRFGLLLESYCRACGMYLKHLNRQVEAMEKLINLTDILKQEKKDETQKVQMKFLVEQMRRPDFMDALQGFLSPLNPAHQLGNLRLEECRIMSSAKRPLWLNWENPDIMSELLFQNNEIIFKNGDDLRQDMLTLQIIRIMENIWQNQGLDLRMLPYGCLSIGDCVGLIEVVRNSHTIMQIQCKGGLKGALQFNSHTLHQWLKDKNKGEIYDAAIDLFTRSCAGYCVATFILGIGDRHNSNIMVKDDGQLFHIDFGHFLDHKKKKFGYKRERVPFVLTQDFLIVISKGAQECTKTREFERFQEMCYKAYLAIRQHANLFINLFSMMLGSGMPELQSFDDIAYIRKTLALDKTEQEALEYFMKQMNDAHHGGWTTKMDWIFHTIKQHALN
Summary of the method: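 Radiometric filter-binding assay: PI3Kα (25 ng/well) preincubated 20 min at room temperature with compound and PIP2-containing lipid vesicles plus phosphotyrosine PDGFRβ peptide. Reaction started with cold ATP (1 μM final) and [33P]-ATP and run 120 min at room temperature; filter-captured radioactivity counted, IC50 from duplicate dilution series.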

H460 cells = test: alamarBlue H460 cell assay (antiproliferative/cytotoxicity); assay type: cell-based; conditions: NCI-H460; H460 human lung carcinoma cells
Summary of the method: as §1

U87 cells = test: U87 cell assay (antiproliferative/cytotoxicity); assay type: cell-based; conditions: U-87MG human glioblastoma cells
Summary of the method: as §1

`Cc1ncc(C#Cc2c(C)ncnc2N2CCCCC2)cc1NS(=O)(=O)c1ccccc1` [Example I-63, N-[2-Methyl-5-(4-methyl-6-piperidin-1-yl-pyrimidin-5-ylethynyl)-pyridin-3-yl]-benzenesulfonamide] showed an EC50 (MCF7 cells) of 126 nM, an EC50 (BT474 cells) of 4320 nM and an EC50 (MB453 cells) of 1330 nM. The IC50 (PI3Kalpha) was 3 nM, the EC50 (H460 cells) was 308 nM and the EC50 (U87 cells) was 1300 nM.

`Cc1ncc(C#Cc2c(C)ncnc2N2CCOCC2)cc1NS(=O)(=O)N1CCCC1` [Example I-64, Pyrrolidine-1-sulfonic acid [2-methyl-5-(4-methyl-6-morpholin-4-yl-pyrimidin-5-ylethynyl)-pyridin-3-yl]-amide] was tested, and the EC50 (MCF7 cells) was 59 nM, the EC50 (BT474 cells) was 5950 nM and the EC50 (MB453 cells) was 584 nM. It also gave an IC50 (PI3Kalpha) of 2 nM, an EC50 (H460 cells) of 71 nM and an EC50 (U87 cells) of 773 nM.

`CCc1ncnc(N2CCN(C)CC2)c1C#Cc1cnc(C)c(NS(=O)(=O)c2ccc(F)cc2)c1` [Example I-65, N-{5-[4-Ethyl-6-(4-methyl-piperazin-1-yl)-pyrimidin-5-ylethynyl]-2-methyl-pyridin-3-yl}-4-fluoro-benzenesulfonamide] gave an EC50 (MCF7 cells) of 28 nM, an EC50 (BT474 cells) of 281 nM and an EC50 (MB453 cells) of 230 nM. The IC50 (PI3Kalpha) was 0.89 nM, the EC50 (H460 cells) was 168 nM and the EC50 (U87 cells) was 524 nM.

In the case of `CCc1ncnc(N2CCC(O)CC2)c1C#Cc1cnc(C)c(NS(=O)(=O)c2ccc(F)cc2)c1` [Example I-66, N-{5-[4-Ethyl-6-(4-hydroxy-piperidin-1-yl)-pyrimidin-5-ylethynyl]-2-methyl-pyridin-3-yl}-4-fluoro-benzenesulfonamide], the EC50 (MCF7 cells) is reported as 145 nM, the EC50 (BT474 cells) is reported as 91 nM and the EC50 (MB453 cells) is reported as 175 nM. It also gave an IC50 (PI3Kalpha) of 0.48 nM, an EC50 (H460 cells) of 444 nM and an EC50 (U87 cells) of 540 nM.

With `CCc1ncnc(N2CCN(S(C)(=O)=O)CC2)c1C#Cc1cnc(C)c(NS(=O)(=O)c2ccc(F)cc2)c1` [Example I-67, N-{5-[4-Ethyl-6-(4-methanesulfonyl-piperazin-l-yl)-pyrimidin-5-ylethynyl]-2-methyl-pyridin-3-yl}-4-fluoro-benzenesulfonamide] the EC50 (MCF7 cells) was 9 nM, the EC50 (BT474 cells) was 44 nM and the EC50 (MB453 cells) was 54 nM. For the same molecule, the IC50 (PI3Kalpha) was 0.14 nM, the EC50 (H460 cells) was 37 nM and the EC50 (U87 cells) was 471 nM.

`CCc1ncnc(N2CCN(C(C)=O)CC2)c1C#Cc1cnc(C)c(NS(=O)(=O)c2ccc(F)cc2)c1` [Example I-68, N-{5-[4-(4-Acetyl-piperazin-1-yl)-6-ethyl-pyrimidin-5-ylethynyl]-2-methyl-pyridin-3-yl}-4-fluoro-benzenesulfonamide] gave an EC50 (MCF7 cells) of 36 nM, an EC50 (BT474 cells) of 117 nM and an EC50 (MB453 cells) of 116 nM. For the same molecule, the IC50 (PI3Kalpha) was 0.47 nM, the EC50 (H460 cells) was 542 nM and the EC50 (U87 cells) was 545 nM.
